“And” between values parts separate entries of the source, which are not always exact repeats. Identical values can stand only once.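 Following 48 hours of exposure in 96-well plates, responses at five concentrations were used to interpolate endpoints linearly. GI50 marks 50% less growth. TGI: concentration producing complete growth inhibition.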
How the values were obtained:
Assay in all cases: DTP human tumour cell line panel, 48 h
MOLT-4 leukemia = tested on: MOLT-4 leukemia
SW-620 colon = tested on: SW-620 colon
SF-539 CNS = tested on: SF-539 CNS
SF-295 CNS = tested on: SF-295 CNS
LOX IMVI melanoma = tested on: LOX IMVI melanoma
NCI-H23 lung = tested on: NCI-H23 lung
786-0 renal = tested on: 786-0 renal
HS 578T breast = tested on: HS 578T breast
UACC-257 melanoma = tested on: UACC-257 melanoma
RPMI-8226 leukemia = tested on: RPMI-8226 leukemia
A549 NSCLC = tested on: A549 NSCLC

Row | SMILES | TGI (MOLT-4 leukemia) | TGI (SW-620 colon) | TGI (SF-539 CNS) | TGI (SF-295 CNS) | TGI (LOX IMVI melanoma) | TGI (NCI-H23 lung) | TGI (786-0 renal) | TGI (HS 578T breast) | TGI (UACC-257 melanoma) | TGI (RPMI-8226 leukemia) | TGI (A549 NSCLC) | GI50 (NCI-H23 lung) | GI50 (SW-620 colon) | GI50 (SF-539 CNS) | GI50 (SF-295 CNS) | GI50 (LOX IMVI melanoma) | GI50 (HS 578T breast) | GI50 (UACC-257 melanoma) | GI50 (RPMI-8226 leukemia)
1 | N=C(N)SCc1nc(-c2ccc(Cl)cc2)no1 | 22.6 µM | 37.2 µM | 41.4 µM | > 100 µM | 31.2 µM | > 100 µM | 29.3 µM | > 100 µM | > 100 µM | 26.8 µM | > 100 µM | – | – | – | – | – | – | – | –
2 | O=C1C(c2ccccc2)=C(c2ccccc2)C1(Cl)Cl | 6.97 µM | 9.77 µM | 9.22 µM | 28.7 µM | 4.25 µM | 7.72 µM | 7.36 µM | > 28.8 µM | 9.36 µM | 5.53 µM | 27.4 µM | – | – | – | – | – | – | – | –
3 | N#Cc1ccc(-c2ccc(Cl)cc2)n(C2OC(CO)C(O)C(O)C2O)c1=S (centres undefined) | > 100 µM | > 100 µM | > 100 µM | > 100 µM and 17.9 µM | > 100 µM | > 100 µM | > 100 µM | > 100 µM | > 100 µM | > 100 µM | > 100 µM | > 100 µM and 31.8 µM | – | – | – | – | – | – | –
4 | c1ccc2c(c1)nnn2C1CCCCO1 (centres undefined) | > 100 µM | > 100 µM | > 100 µM | > 100 µM | > 100 µM | > 100 µM | > 100 µM | > 100 µM | > 100 µM | > 100 µM | > 100 µM | – | – | – | – | – | – | – | –
5 | C1=CC2C(C3CN(c4ccccc4)N=C13)C1C3C4C=CC21C=CC43 (centres undefined) | > 100 µM | > 100 µM | > 100 µM | > 100 µM | > 100 µM | > 100 µM | > 100 µM | > 100 µM | > 100 µM | > 100 µM | > 100 µM | – | – | – | – | – | – | – | –
6 | N#Cc1c(/C=C/c2ccccc2)c2c([nH]c1=S)CCCCC2 | > 100 µM | > 100 µM | > 100 µM | > 100 µM | > 100 µM | > 100 µM | > 100 µM | > 100 µM | > 100 µM | > 100 µM | > 100 µM | – | – | – | – | – | – | – | –
7 | COc1cc2nc(-c3cccs3)nc(N3CCN(c4ccccc4)CC3)c2cc1OC | – | > 100 µM | > 100 µM | > 100 µM | > 100 µM | > 100 µM | > 100 µM | > 100 µM | > 100 µM | > 100 µM | > 100 µM | – | – | – | – | – | – | – | –
8 | CCCCCCCCCCCC(=O)N(CCCCCCCCC)CC(O)C(O)C(OC1OC(CO)C(O)C(O)C1O)C(O)CO (centres undefined) | 40.3 µM | 35.1 µM | 50.8 µM | 40 µM | 40.2 µM | 35.3 µM | 32.8 µM | > 100 µM | 31.4 µM | 57.1 µM | 43.5 µM | – | – | – | – | – | – | – | –
9 | CCOc1ccccc1N=NC1C(=O)N(C(=O)CC(=O)Nc2ccccc2C)N=C1C (centres undefined) | > 100 µM | > 100 µM | > 100 µM | 36 µM | > 100 µM | > 100 µM | > 100 µM | 31.5 µM | – | > 100 µM | > 100 µM | – | – | – | – | – | – | – | –
10 | N#Cc1sc2c(c1OC(=O)c1ccco1)c(=O)n(-c1ccccc1)c(=S)n2-c1ccccc1 | 43.4 µM | > 100 µM | 52.7 µM | > 100 µM | 45.6 µM | > 100 µM | > 100 µM | > 100 µM | > 100 µM | 59.3 µM | > 100 µM | – | – | – | – | – | – | – | –
11 | CCC[N+](C)(C)CCCNC(=O)c1c(O)c2ccccc2[nH]c1=O | > 100 µM | > 100 µM | > 100 µM | > 100 µM | > 100 µM | > 100 µM | > 100 µM | > 100 µM | > 100 µM | > 100 µM | > 100 µM | – | – | – | – | – | – | – | –
12 | CCOC(=O)c1ccc2nc3n(c2c1)C(c1c(F)cccc1F)SC3 (centres undefined) | > 100 µM | > 100 µM | > 100 µM | > 100 µM | > 100 µM | > 100 µM | > 100 µM | > 100 µM | > 100 µM | > 100 µM | > 100 µM | – | – | – | – | – | – | – | –
13 | Cc1ccc(C)n1-c1ccccc1C1C=Cn2c(=O)oc3c(OC(C)C)c(OC(C)C)c(O)c1c32 (centres undefined) | > 100 µM | 75.6 µM | > 100 µM | > 100 µM | 38.4 µM | > 100 µM | > 100 µM | > 100 µM | > 100 µM | > 100 µM | > 100 µM | – | – | – | – | – | – | – | –
14 | OCc1ccc2c(c1)CC1(Cc3ccccc3C1)C2 | – | 39 µM | 44.3 µM | 40.6 µM | 29.7 µM | 82.3 µM | 29.6 µM | 32.9 µM | 43 µM | 46.4 µM | 71.2 µM | – | – | – | – | – | – | – | –
15 | O=[N+]([O-])c1c(O)c2nonc2c2nn(-c3ccccc3)nc12 | > 100 µM | > 100 µM | > 100 µM | > 100 µM | > 100 µM | > 100 µM | > 100 µM | > 100 µM | > 100 µM | > 100 µM | > 100 µM | – | – | – | – | – | – | – | –
16 | O=C(CC(=O)N1N=C(c2ccccc2)C(N=Nc2ccc(S(=O)(=O)CCOS(=O)(=O)O)cc2)C1=O)Nc1ccc(Cl)cc1 (centres undefined) | > 100 µM | – | > 100 µM | > 100 µM | > 100 µM | > 100 µM | > 100 µM | 99.6 µM | > 100 µM | > 100 µM | > 100 µM | – | – | – | – | – | – | – | –
17 | Cc1ccc2sc3c(NCCCN)nc4ccccc4c3c(=O)c2c1 | – | 3.54 µM | 3.21 µM | 3.32 µM | 3.08 µM | 3.37 µM | – | 5.19 µM | 4.21 µM | 5.5 µM | – | 1.82 µM | 1.79 µM | 1.76 µM | 1.8 µM | 1.66 µM | 2.05 µM | 2.04 µM | 2.41 µM
18 | COc1ccc(/C(=N/O)c2ccccc2C2=Nc3ccccc3C(NCc3ccccc3)O2)cc1C (centres undefined) | > 100 µM | > 100 µM | > 100 µM | 67.3 µM | > 100 µM | > 100 µM | > 100 µM | > 100 µM | 41.9 µM | > 100 µM | > 100 µM | – | – | – | – | – | – | – | –
19 | CCOC(=O)c1sc2nc(SC)nc3c2c1NCN3C | – | – | – | > 100 µM | > 100 µM | 59.1 µM | 47.3 µM | 59.4 µM | > 100 µM | > 100 µM | > 100 µM | – | – | – | – | – | – | – | –
20 | CC1(C)CCCCCC(O)C(O)CCC(C)(C)C1=O (centres undefined) | > 100 µM | > 100 µM | > 100 µM | > 100 µM | > 100 µM | > 100 µM | > 100 µM | > 100 µM | > 100 µM | > 100 µM | > 100 µM | – | – | – | – | – | – | – | –
